Calls of active or inactive are those of the source. The rule behind the calls is not given here.
Test system: GENE-TOX genotoxicity assays, various organisms and cells
Assay: GENE-TOX mutagenicity studies
Details: for call: Assay Type: In vivo carcinogenicity studies
[1] = Species/Cell Type: Mammalian polychromatic erythrocytes, Assay Type: Micronucleus test, chromosome aberrations, Assay Code: MNT+, Evaluation Type: Evaluation B (Post-1980)
[2] = Species/Cell Type: Salmonella typhimurium (one or more of the five standard strains: TA98, TA100, TA1535, TA1537, and TA1538), Assay Type: Histidine reverse gene mutation, Ames assay, Assay Code: SAL-, Evaluation Type: Evaluation A (Pre-1980)
[3] = Species/Cell Type: Nonhuman, Assay Code: CCG+L, Evaluation Type: Evaluation A (Pre-1980)
[4] = Species/Cell Type: Chinese hamster lung (V79) cells, Assay Type: Forward gene mutation at the HPRT or ouabain locus, Assay Code: V79+, Evaluation Type: Evaluation A (Pre-1980)
[5] = Species/Cell Type: Schizosaccharomyces pombe, Assay Type: Reverse gene mutation, Assay Code: YEZ+, Evaluation Type: Evaluation A (Pre-1980)
[6] = Species/Cell Type: Mammalian polychromatic erythrocytes, Assay Type: Micronucleus test, chromosome aberrations, Assay Code: MNTT, Evaluation Type: Evaluation B (Post-1980)
[7] = Species/Cell Type: Drosophila melanogaster, Assay Type: Sex-linked recessive lethal gene mutation, Assay Code: SRL+, Evaluation Type: Evaluation A (Pre-1980)
[8] = Species/Cell Type: Arabidopsis species, Assay Type: Gene mutation, Assay Code: ARM-, Evaluation Type: Evaluation A (Pre-1980)
[9] = Species/Cell Type: Salmonella typhimurium (one or more of the five standard strains: TA98, TA100, TA1535, TA1537, and TA1538), Assay Type: Histidine reverse gene mutation, Ames assay, Assay Code: SAL+*, Activation: With metabolic activation, Evaluation Type: Evaluation A (Pre-1980)
[10] = Species/Cell Type: Nonhuman, Assay Code: CCG+, Evaluation Type: Evaluation A (Pre-1980)
[11] = Species/Cell Type: Salmonella typhimurium (one or more of the five standard strains: TA98, TA100, TA1535, TA1537, and TA1538), Assay Type: Histidine reverse gene mutation, Ames assay, Assay Code: SAL+, Evaluation Type: Evaluation A (Pre-1980)

CCN(Cc1cccc(S(=O)(=O)O)c1)c1ccc(C(=C2C=CC(=[N+](CC)Cc3cccc(S(=O)(=O)O)c3)C=C2)c2ccc(O)cc2S(=O)(=O)[O-])cc1
mutagenic call (Species/Cell Type: Bacillus subtilis (H17 vs M45), Assay Type: Rec-assay, spot test, DNA effects (bacterial DNA repair), Assay Code: REWT, Evaluation Type: Evaluation A (Pre-1980)): no conclusion | mutagenic call (Species/Cell Type: Bacillus subtilis (H17 vs M45T), Assay Type: Rec-assay, spot test, DNA effects (bacterial DNA repair), Assay Code: REXT, Evaluation Type: Evaluation A (Pre-1980)): no conclusion | mutagenic call [1]: active; positive | mutagenic call (Species/Cell Type: Saccharomyces cerevisiae, Assay Type: Mitotic recombination or gene conversion, Assay Code: YEC-, Evaluation Type: Evaluation A (Pre-1980)): inactive; negative | mutagenic call [2]: inactive; negative

Cc1ccc(Cl)cc1N
mutagenic call (Species/Cell Type: Mouse, Sex: Male, Assay Type: Sperm morphology, Assay Code: SPI-, Evaluation Type: Evaluation A (Pre-1980)): inactive; negative | call [3]: active; positive

COc1cc(=O)oc(/C=C/C=C/C=C/C(C)=C/[C@]2(C)O[C@H](C)[C@](C)(O)[C@H]2O)c1C
mutagenic call (Species/Cell Type: Bacillus subtilis (H17 vs M45), Assay Type: Rec-assay, spot test, DNA effects (bacterial DNA repair), Assay Code: REW-, Evaluation Type: Evaluation A (Pre-1980)): inactive; negative

Cc1c2c(c(C)c3c1ccc1ccccc13)[C@@H]1OC1[C@@H](O)[C@@H]2O (stereo partly drawn)
mutagenic call [4]: active; positive

COC(=O)CCN1CC1
mutagenic call [5]: active; positive

COCCc1ccc(OCC(O)CNC(C)C)cc1 (stereo not drawn)
mutagenic call [6]: no conclusion

CNP(=O)(N1CC1)N1CC1
mutagenic call [7]: active; positive

CS(=O)(=O)OC/C=C/COS(C)(=O)=O
mutagenic call [7]: active; positive

CCSCCSP(=S)(OC)OC
mutagenic call (Species/Cell Type: Mammalian polychromatic erythrocytes, Assay Type: Micronucleus test, chromosome aberrations, Assay Code: MNT+U, Dose Response: Unconfirmed positive response, Evaluation Type: Evaluation B (Post-1980)): active; positive

Nc1cc(Cl)c(Cl)cc1N
mutagenic call [6]: no conclusion

O=C1CCC(=O)N1CN1CCOCC1
mutagenic call [8]: inactive; negative

COc1cc2c(c3oc(=O)c4c(c13)CC[C@@H]4O)[C@@H]1C=CO[C@@H]1O2
mutagenic call (Species/Cell Type: Human diploid fibroblasts, Assay Type: Unscheduled DNA synthesis (UDS) in vitro, DNA effects, Assay Code: UDH+D, Dose Response: With dose response, Evaluation Type: Evaluation A (Pre-1980)): active; positive | mutagenic call [9]: active; positive

[O]=[Cd]
call [10]: active; positive

Nc1cc(S(=O)(=O)O)cc2c1C(=O)/C(=N/Nc1ccc(-c3ccc(N/N=C4/C(=O)c5c(N)cc(S(=O)(=O)O)cc5C=C4S(=O)(=O)O)cc3)cc1)C(S(=O)(=O)O)=C2
call [10]: active; positive

CC(=O)Nc1ccc2c(c1)Cc1cc(NC(C)=O)ccc1-2
mutagenic call [11]: active; positive

CNO
mutagenic call (Species/Cell Type: Neurospora crassa, Assay Type: Reverse gene mutation, Assay Code: NER+, Evaluation Type: Evaluation A (Pre-1980)): active; positive

Oc1ccc(Cl)cc1Cc1cc(Cl)ccc1O
mutagenic call [6]: no conclusion

O.O.O.O.O.[Cd+2].[Cd+2].[Cl-].[Cl-].[Cl-].[Cl-]
mutagenic call (Species/Cell Type: Nonhuman, Assay Type: Sister-chromatid exchange (SCE) in vitro, Assay Code: SC2+, Evaluation Type: Evaluation B (Post-1980)): active; positive

O=CNNc1nc(-c2ccco2)cs1
mutagenic call (Species/Cell Type: Escherichia coli WP2, Assay Type: Tryptophan reverse gene mutation, Assay Code: WP2-, Evaluation Type: Evaluation A (Pre-1980)): inactive; negative | mutagenic call (Species/Cell Type: Escherichia coli WP2 UVRA, Assay Type: Tryptophan reverse gene mutation, Assay Code: WPU-, Evaluation Type: Evaluation A (Pre-1980)): inactive; negative

NC[C@H]1O[C@H](O[C@H]2[C@H](O)[C@@H](O[C@H]3O[C@H](CO)[C@@H](O)[C@H](N)[C@H]3O)[C@H](N)C[C@@H]2N)[C@H](N)[C@@H](O)[C@@H]1O
mutagenic call (Species/Cell Type: Saccharomyces cerevisiae, Assay Type: Mitotic recombination or gene conversion, Assay Code: YEH-, Evaluation Type: Evaluation A (Pre-1980)): inactive; negative

O=C(O)CN(CCN(CC(=O)O)CC(=O)O)CC(=O)O
mutagenic call (Species/Cell Type: Allium cepa, Assay Type: Chromosome aberrations, Assay Code: ALC+, Evaluation Type: Evaluation A (Pre-1980)): active; positive | mutagenic call [8]: inactive; negative | call (Species/Cell Type: Nonhuman, Assay Code: CCG-, Evaluation Type: Evaluation A (Pre-1980)): inactive; negative | mutagenic call [2]: inactive; negative

CCOc1ccccc1[N+](=O)[O-]
mutagenic call [11]: active; positive

CCOP(=O)(OCC)Oc1ccc([N+](=O)[O-])cc1
mutagenic call (Species/Cell Type: Nonhuman, Assay Type: Sister-chromatid exchange (SCE) in vitro, Assay Code: SC2+D, Dose Response: With dose response, Evaluation Type: Evaluation B (Post-1980)): active; positive

CN1CCN(CCCN2c3ccccc3Sc3ccc(S(=O)(=O)N(C)C)cc32)CC1
mutagenic call (Species/Cell Type: Rodents, Sex: Male, Assay Type: Dominant lethal test, Assay Code: DLT-, Evaluation Type: Evaluation A (Pre-1980)): inactive; negative

CN(C)Cc1cc(Br)ccc1OCC(=O)N/N=C/c1ccccc1O
mutagenic call (Species/Cell Type: Saccharomyces cerevisiae, Assay Type: Reverse gene mutation, Assay Code: YERT, Evaluation Type: Evaluation A (Pre-1980)): no conclusion

ClC1=C(Cl)[C@]2(Cl)C3C(Cl)C(Cl)CC3[C@@]1(Cl)C2(Cl)Cl (stereo partly drawn)
mutagenic call [4]: active; positive | call [3]: active; positive | mutagenic call (Species/Cell Type: Rodents, Sex: Male, Assay Type: Dominant lethal test, Assay Code: DLTT, Evaluation Type: Evaluation A (Pre-1980)): no conclusion | mutagenic call (Species/Cell Type: Zea mays (corn), Assay Type: Gene mutation, Assay Code: ZEM+, Evaluation Type: Evaluation A (Pre-1980)): active; positive

CC(=O)Nc1c(I)c(NC(C)=O)c(I)c(C(=O)O)c1I
mutagenic call (Species/Cell Type: Human lymphocytes, Assay Type: Sister-chromatid exchange (SCE) in vitro, Assay Code: SCLT, Evaluation Type: Evaluation B (Post-1980)): no conclusion | mutagenic call (Species/Cell Type: Human, Assay Type: Sister-chromatid exchange (SCE) in vitro, Assay Code: SC1T, Evaluation Type: Evaluation B (Post-1980)): no conclusion

CCCCN(CCO)N=O
mutagenic call [11]: active; positive

CCCCN1CC1
mutagenic call [5]: active; positive

O[C@@H]1[C@H]2O[C@H]2c2cc3ccc4cccc5ccc(c2[C@H]1O)c3c45
mutagenic call [11]: active; positive

COc1cc2c(c(OC)c1OC)-c1ccc(OC)c(=O)cc1[C@@H](NC(C)=O)CC2
mutagenic call (Species/Cell Type: Drosophila melanogaster, Assay Type: Aneuploidy, sex chromosome gain, chromosome aberrations, Assay Code: DAG+F, Evaluation Type: Evaluation A (Pre-1980)): active; positive | mutagenic call (Species/Cell Type: Drosophila melanogaster, Assay Type: Aneuploidy, whole sex chromosome loss, chromosome aberrations, Assay Code: DAC+F, Evaluation Type: Evaluation A (Pre-1980)): active; positive | mutagenic call (Species/Cell Type: Glycine max (soybean), Assay Type: Gene mutation, Assay Code: GLM+, Evaluation Type: Evaluation A (Pre-1980)): active; positive | mutagenic call (Species/Cell Type: Human, Sex: Male, Assay Type: Sperm morphology, Assay Code: SPHT, Evaluation Type: Evaluation A (Pre-1980)): no conclusion | mutagenic call (Species/Cell Type: Mammalian cell culture, nonhuman, Assay Type: Micronucleus test in vitro, chromosome aberrations, Assay Code: MN&+, Evaluation Type: Evaluation A (Pre-1980)): active; positive | mutagenic call [1]: active; positive | mutagenic call (Species/Cell Type: Mammalian polychromatic erythrocytes, Assay Type: Micronucleus test, chromosome aberrations, Assay Code: MNTT, Evaluation Type: Evaluation A (Pre-1980)): no conclusion | mutagenic call (Species/Cell Type: Mouse, Sex: Male, Assay Type: Sperm morphology, Assay Code: SPI+, Evaluation Type: Evaluation A (Pre-1980)): active; positive | mutagenic call (Species/Cell Type: Neurospora crassa, Assay Type: Aneuploidy, chromosome aberrations, Assay Code: NEN-, Evaluation Type: Evaluation A (Pre-1980)): inactive; negative | mutagenic call (Species/Cell Type: Nonhuman, Assay Type: Sister-chromatid exchange (SCE) in vivo, Assay Code: SC3-, Evaluation Type: Evaluation B (Post-1980)): inactive; negative | mutagenic call (Species/Cell Type: Plant, Assay Type: Micronucleus test, chromosome aberrations, Assay Code: MNP+, Evaluation Type: Evaluation A (Pre-1980)): active; positive

Cc1cc(N(C)CCCl)ccc1N=Nc1ccccc1C(=O)O
mutagenic call (Species/Cell Type: Drosophila melanogaster, Assay Type: Sex-linked recessive lethal gene mutation, Assay Code: SRLT, Evaluation Type: Evaluation A (Pre-1980)): no conclusion

Cc1cnc2ccccc2c1
mutagenic call [9]: active; positive

CCSc1nc2c(c(=O)n(C)c(=O)n2C)n1C
mutagenic call (Species/Cell Type: Allium cepa, Assay Type: Chromosome aberrations, Assay Code: ALC+D, Dose Response: With dose response, Evaluation Type: Evaluation A (Pre-1980)): active; positive

Reference: PubChem BioAssay AID1259408 (Genetic Toxicology Data Bank (GENE-TOX), 2018)
